pIC50: −log10 of the molar value.

What is called pIC50 is the IC50 on a negative log10 scale, so that one unit is a factor of ten.

recombinant full length HPK-1 enzyme, sequence (Q92918 whole entry, species assumed): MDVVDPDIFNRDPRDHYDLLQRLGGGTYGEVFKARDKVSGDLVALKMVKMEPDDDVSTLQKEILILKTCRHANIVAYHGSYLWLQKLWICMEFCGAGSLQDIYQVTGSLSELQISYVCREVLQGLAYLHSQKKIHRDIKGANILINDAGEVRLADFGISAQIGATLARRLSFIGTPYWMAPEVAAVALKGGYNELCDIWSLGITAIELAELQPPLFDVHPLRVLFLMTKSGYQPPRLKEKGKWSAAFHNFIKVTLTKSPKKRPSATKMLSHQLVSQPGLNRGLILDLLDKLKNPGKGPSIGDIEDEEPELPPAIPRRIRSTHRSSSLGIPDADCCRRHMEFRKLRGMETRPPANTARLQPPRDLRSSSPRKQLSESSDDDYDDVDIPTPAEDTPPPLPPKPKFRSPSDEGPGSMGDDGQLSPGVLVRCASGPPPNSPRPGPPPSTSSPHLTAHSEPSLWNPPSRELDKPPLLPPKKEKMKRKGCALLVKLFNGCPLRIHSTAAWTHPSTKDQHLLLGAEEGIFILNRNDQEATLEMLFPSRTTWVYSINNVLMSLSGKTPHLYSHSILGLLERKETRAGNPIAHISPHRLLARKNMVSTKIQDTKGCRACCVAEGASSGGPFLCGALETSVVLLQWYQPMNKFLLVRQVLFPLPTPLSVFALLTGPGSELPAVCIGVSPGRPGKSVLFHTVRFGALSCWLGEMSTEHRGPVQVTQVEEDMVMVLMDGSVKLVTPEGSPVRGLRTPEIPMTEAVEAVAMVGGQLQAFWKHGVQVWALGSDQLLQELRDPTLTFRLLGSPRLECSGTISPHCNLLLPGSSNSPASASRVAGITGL

The assay deals with recombinant full length HPK-1 enzyme (Homo sapiens (Human), UniProt Q92918). Kind of assay: HPK-1 biochemical enzyme assay (ADP-Glo kinase inhibition). To be noted: recombinant full length HPK-1 6.8 nM, 10 μM ATP, 12.5 μM MBP, 30 mins at 25° C. Summed up:
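ADP-Glo readout of ADP formed after a 30 min, 25° C. reaction of 6.8 nM full-length HPK-1 with swine myelin basic protein (12.5 μM) and ATP (10 μM) in Tris pH 7.4 buffer with MgCl2, DTT and BSA. Ten compound concentrations tested; percent inhibition set against vehicle (0%) and no-enzyme (100%) controls gave IC50.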
A general note: In ADP-Glo the light output rises with the ADP produced.
On to `Cc1c(Nc2cc[nH]c(=O)c2C(=O)Nc2ccc(S(=O)(=O)NC3CC3)cc2)cnc2c1NCCO2` [Example 231, N-(4-(N-cyclopropylsulfamoyl)phenyl)-4-((8-methyl-2,3-dihydro-1H-pyrido[2,3-b][1,4]oxazin-7-yl)amino)-2-oxo-1,2-dihydropyridine-3-carboxamide], for which the negative-log IC50 (pIC50) was 7.00 to 8.00. Regarding `Cc1c(Nc2cc[nH]c(=O)c2C(=O)Nc2ccc(CN3CCS(=O)(=O)CC3)cc2)cnc2c1NCCO2` [Example 232, N-(4-((1,1-dioxidothiomorpholino)methyl)phenyl)-4-((8-methyl-2,3-dihydro-1H-pyrido[2,3-b][1,4]oxazin-7-yl)amino)-2-oxo-1,2-dihydropyridine-3-carboxamide], the pIC50 was 7.00 to 8.00. For the molecule `Cc1c(Nc2cc[nH]c(=O)c2C(=O)Nc2ccc(Cc3ccncc3)cc2)cnc2c1NCCO2` [Example 233, 4-((8-methyl-2,3-dihydro-1H-pyrido[2,3-b][1,4]oxazin-7-yl)amino)-2-oxo-N-(4-(pyridin-4-ylmethyl)phenyl)-1,2-dihydropyridine-3-carboxamide], the pIC50 is 7.00 to 8.00. For `Cc1c(Nc2cc[nH]c(=O)c2C(=O)Nc2ccc3[nH]ncc3c2)cnc2c1NCCO2` [Example 234, N-(1H-indazol-5-yl)-4-((8-methyl-2,3-dihydro-1H-pyrido[2,3-b][1,4]oxazin-7-yl)amino)-2-oxo-1,2-dihydropyridine-3-carboxamide] the value was 7.00 to 8.00; for `Cc1c(Nc2cc[nH]c(=O)c2C(=O)Nc2ccc(N3CC4CCC3CN4C)cc2)cnc2c1NCCO2` (stereo not drawn) [Example 235, 4-((8-methyl-2,3-dihydro-1H-pyrido[2,3-b][1,4]oxazin-7-yl)amino)-N-(4-(5-methyl-2,5-diazabicyclo[2.2.2]octan-2-yl)phenyl)-2-oxo-1,2-dihydropyridine-3-carboxamide], at least 8.00. Turning to `Cc1c(Nc2cc[nH]c(=O)c2C(=O)Nc2ccc(N3C[C@@H]4C[C@H]3CN4C)cc2)cnc2c1NCCO2` [Example 236, 4-((8-methyl-2,3-dihydro-1H-pyrido[2,3-b][1,4]oxazin-7-yl)amino)-N-(4-((1S,4S)-5-methyl-2,5-diazabicyclo[2.2.1]heptan-2-yl)phenyl)-2-oxo-1,2-dihydropyridine-3-carboxamide], the pIC50 was 7.00 to 8.00. With `Cc1c(Nc2cc[nH]c(=O)c2C(=O)Nc2ccc3cn[nH]c3c2)cnc2c1NCCO2` [Example 237, N-(1H-indazol-6-yl)-4-((8-methyl-2,3-dihydro-1H-pyrido[2,3-b][1,4]oxazin-7-yl)amino)-2-oxo-1,2-dihydropyridine-3-carboxamide], the pIC50 is 7.00 to 8.00. `Cc1c(Nc2cc[nH]c(=O)c2C(=O)Nc2ccc(N3CCN(CCC4CNC4)CC3)cc2)cnc2c1NCCO2` [Example 238, N-(4-(4-(2-(azetidin-3-yl)ethyl)piperazin-1-yl)phenyl)-4-((8-methyl-2,3-dihydro-1H-pyrido[2,3-b][1,4]oxazin-7-yl)amino)-2-oxo-1,2-dihydropyridine-3-carboxamide]: the pIC50 was at least 8.00. For `Cc1c(Nc2cc[nH]c(=O)c2C(=O)Nc2ccc3c(c2)N(C)C(=O)CO3)cnc2c1NCCO2` [Example 239, 4-((8-methyl-2,3-dihydro-1H-pyrido[2,3-b][1,4]oxazin-7-yl)amino)-N-(4-methyl-3-oxo-3,4-dihydro-2H-benzo[b][1,4]oxazin-6-yl)-2-oxo-1,2-dihydropyridine-3-carboxamide], the pIC50 was 6.00 to 7.00. In the case of `Cc1c(Nc2cc[nH]c(=O)c2C(=O)Nc2ccc3c(c2)NCCO3)cnc2c1NCCO2` [Example 240, N-(3,4-dihydro-2H-benzo[b][1,4]oxazin-6-yl)-4-((8-methyl-2,3-dihydro-1H-pyrido[2,3-b][1,4]oxazin-7-yl)amino)-2-oxo-1,2-dihydropyridine-3-carboxamide], the pIC50 was 7.00 to 8.00. For `Cc1c(Nc2cc[nH]c(=O)c2C(=O)Nc2ccc(N3CCN(C)C[C@H]3C)cc2)cnc2c1NCCO2` [Example 241, (R)-N-(4-(2,4-dimethylpiperazin-1-yl)phenyl)-4-((8-methyl-2,3-dihydro-1H-pyrido[2,3-b][1,4]oxazin-7-yl)amino)-2-oxo-1,2-dihydropyridine-3-carboxamide], the pIC50 was at least 8.00. As for `Cc1c(Nc2cc[nH]c(=O)c2C(=O)Nc2ccc(C(N)=O)cc2)cnc2c1NCCO2` [Example 242, N-(4-carbamoylphenyl)-4-((8-methyl-2,3-dihydro-1H-pyrido[2,3-b][1,4]oxazin-7-yl)amino)-2-oxo-1,2-dihydropyridine-3-carboxamide], the negative logarithm of the IC50 (pIC50) was 7.00 to 8.00. For `CC(=O)Nc1ccc(NC(=O)c2c(Nc3cnc4c(c3C)NCCO4)cc[nH]c2=O)cn1` [Example 243, N-(6-acetamidopyridin-3-yl)-4-((8-methyl-2,3-dihydro-1H-pyrido[2,3-b][1,4]oxazin-7-yl)amino)-2-oxo-1,2-dihydropyridine-3-carboxamide] the value was 6.00 to 7.00; for `Cc1c(Nc2cc[nH]c(=O)c2C(=O)Nc2ccc3c(c2)OCO3)cnc2c1NCCO2` [Example 244, N-(benzo[d][1,3]dioxol-5-yl)-4-((8-methyl-2,3-dihydro-1H-pyrido[2,3-b][1,4]oxazin-7-yl)amino)-2-oxo-1,2-dihydropyridine-3-carboxamide], 7.00 to 8.00.

With `Cc1c(Nc2cc[nH]c(=O)c2C(=O)Nc2cccc(S(=O)(=O)CCO)c2)cnc2c1NCCO2` [Example 245, N-(3-((2-hydroxyethyl)sulfonyl)phenyl)-4-((8-methyl-2,3-dihydro-1H-pyrido[2,3-b][1,4]oxazin-7-yl)amino)-2-oxo-1,2-dihydropyridine-3-carboxamide], the pIC50 is 6.00 to 7.00. Regarding `Cc1c(Nc2cc[nH]c(=O)c2C(=O)Nc2ccc3c(c2)NCCC3)cnc2c1NCCO2` [Example 246, 4-((8-methyl-2,3-dihydro-1H-pyrido[2,3-b][1,4]oxazin-7-yl)amino)-2-oxo-N-(1,2,3,4-tetrahydroquinolin-7-yl)-1,2-dihydropyridine-3-carboxamide], the pIC50 was 7.00 to 8.00.

In the case of `Cc1c(Nc2cc[nH]c(=O)c2C(=O)Nc2ccc(N3CCC(C(N)=O)CC3)cc2)cnc2c1NCCO2` [Example 247, N-(4-(4-carbamoylpiperidin-1-yl)phenyl)-4-((8-methyl-2,3-dihydro-1H-pyrido[2,3-b][1,4]oxazin-7-yl)amino)-2-oxo-1,2-dihydropyridine-3-carboxamide], the negative logarithm of the IC50 (pIC50) was at least 8.00. On to `Cc1c(Nc2cc[nH]c(=O)c2C(=O)Nc2ccc3ncsc3c2)cnc2c1NCCO2` [Example 248, N-(benzo[d]thiazol-6-yl)-4-((8-methyl-2,3-dihydro-1H-pyrido[2,3-b][1,4]oxazin-7-yl)amino)-2-oxo-1,2-dihydropyridine-3-carboxamide], for which the pIC50 is 7.00 to 8.00. For `Cc1nc2ccc(NC(=O)c3c(Nc4cnc5c(c4C)NCCO5)cc[nH]c3=O)cc2s1` [Example 249, 4-((8-methyl-2,3-dihydro-1H-pyrido[2,3-b][1,4]oxazin-7-yl)amino)-N-(2-methylbenzo[d]thiazol-6-yl)-2-oxo-1,2-dihydropyridine-3-carboxamide], the pIC50 is 7.00 to 8.00. For the molecule `Cc1c(Nc2cc[nH]c(=O)c2C(=O)Nc2ccc3c(c2)CCC(=O)N3C)cnc2c1NCCO2` [Example 250, 4-((8-methyl-2,3-dihydro-1H-pyrido[2,3-b][1,4]oxazin-7-yl)amino)-N-(1-methyl-2-oxo-1,2,3,4-tetrahydroquinolin-6-yl)-2-oxo-1,2-dihydropyridine-3-carboxamide], the pIC50 is 7.00 to 8.00.

Turning to `CCC(=O)N1CCN(c2ccc(NC(=O)c3c(Nc4cnc5c(c4C)NCCO5)cc[nH]c3=O)cc2)CC1` [Example 251, 4-((8-methyl-2,3-dihydro-1H-pyrido[2,3-b][1,4]oxazin-7-yl)amino)-2-oxo-N-(4-(4-propionylpiperazin-1-yl)phenyl)-1,2-dihydropyridine-3-carboxamide], the pIC50 was at least 8.00.

On to `Cc1c(Nc2cc[nH]c(=O)c2C(=O)Nc2ccc3c(c2)CCC(=O)N3)cnc2c1NCCO2` [Example 252, 4-((8-methyl-2,3-dihydro-1H-pyrido[2,3-b][1,4]oxazin-7-yl)amino)-2-oxo-N-(2-oxo-1,2,3,4-tetrahydroquinolin-6-yl)-1,2-dihydropyridine-3-carboxamide], for which the pIC50 is 7.00 to 8.00.

For `COc1ccc(Oc2ccc(NC(=O)c3c(Nc4cnc5c(c4C)NCCO5)cc[nH]c3=O)cc2)cc1` [Example 253, N-(4-(4-methoxyphenoxy)phenyl)-4-((8-methyl-2,3-dihydro-1H-pyrido[2,3-b][1,4]oxazin-7-yl)amino)-2-oxo-1,2-dihydropyridine-3-carboxamide], the pIC50 is 6.00 to 7.00. Take `Cc1c(Nc2cc[nH]c(=O)c2C(=O)Nc2ccc3c(c2)CCCN3)cnc2c1NCCO2` [Example 254, 4-((8-methyl-2,3-dihydro-1H-pyrido[2,3-b][1,4]oxazin-7-yl)amino)-2-oxo-N-(1,2,3,4-tetrahydroquinolin-6-yl)-1,2-dihydropyridine-3-carboxamide]: the pIC50 is 7.00 to 8.00. As for `Cc1c(Nc2cc[nH]c(=O)c2C(=O)Nc2ccc(-n3ccnc3)cc2)cnc2c1NCCO2` [Example 255, N-(4-(1H-imidazol-1-yl)phenyl)-4-((8-methyl-2,3-dihydro-1H-pyrido[2,3-b][1,4]oxazin-7-yl)amino)-2-oxo-1,2-dihydropyridine-3-carboxamide], the negative-log IC50 (pIC50) was 7.00 to 8.00.

For `Cc1c(Nc2cc[nH]c(=O)c2C(=O)Nc2ccc(N3CCN(C4COC4)CC3)cc2)cnc2c1NCCO2` [Example 256, 4-((8-methyl-2,3-dihydro-1H-pyrido[2,3-b][1,4]oxazin-7-yl)amino)-N-(4-(4-(oxetan-3-yl)piperazin-1-yl)phenyl)-2-oxo-1,2-dihydropyridine-3-carboxamide], the negative-log IC50 (pIC50) was at least 8.00. The same measure for `Cc1c(Nc2cc[nH]c(=O)c2C(=O)Nc2ccc3nc[nH]c3c2)cnc2c1NCCO2` [Example 257, N-(1H-benzo[d]imidazol-6-yl)-4-((8-methyl-2,3-dihydro-1H-pyrido[2,3-b][1,4]oxazin-7-yl)amino)-2-oxo-1,2-dihydropyridine-3-carboxamide]: 7.00 to 8.00.

(Values after patent publication US20250282794A1 (CURADEV PHARMA LTD, priority 2022, published 2025).)
